# Experimental data: patent US11279701B2, “Immunomodulators and immunomodulator conjugates” (REGENTS OF THE UNIVERSITY OF MINNESOTA, priority 2016, dated 2022)
# Columns and labels:
# human TLR-8 = target: T1, human TLR-8 (Homo sapiens, UniProt Q9NR97); experiment: TLR7/8-NF-κB Reporter Assay (HEK SEAP Reporter Assay), HEK-TLR-8 cells; format: cell-based; conditions: HEK cells stably transfected with human TLR-8 and NF-κB-responsive SEAP gene, 24 h
# T1 construct: host or cells: HEK cells stably transfected with human TLR-8 and an NF-κB-responsive SEAP reporter (HEK-TLR-8)
# T1 sequence (Q9NR97 27-1041): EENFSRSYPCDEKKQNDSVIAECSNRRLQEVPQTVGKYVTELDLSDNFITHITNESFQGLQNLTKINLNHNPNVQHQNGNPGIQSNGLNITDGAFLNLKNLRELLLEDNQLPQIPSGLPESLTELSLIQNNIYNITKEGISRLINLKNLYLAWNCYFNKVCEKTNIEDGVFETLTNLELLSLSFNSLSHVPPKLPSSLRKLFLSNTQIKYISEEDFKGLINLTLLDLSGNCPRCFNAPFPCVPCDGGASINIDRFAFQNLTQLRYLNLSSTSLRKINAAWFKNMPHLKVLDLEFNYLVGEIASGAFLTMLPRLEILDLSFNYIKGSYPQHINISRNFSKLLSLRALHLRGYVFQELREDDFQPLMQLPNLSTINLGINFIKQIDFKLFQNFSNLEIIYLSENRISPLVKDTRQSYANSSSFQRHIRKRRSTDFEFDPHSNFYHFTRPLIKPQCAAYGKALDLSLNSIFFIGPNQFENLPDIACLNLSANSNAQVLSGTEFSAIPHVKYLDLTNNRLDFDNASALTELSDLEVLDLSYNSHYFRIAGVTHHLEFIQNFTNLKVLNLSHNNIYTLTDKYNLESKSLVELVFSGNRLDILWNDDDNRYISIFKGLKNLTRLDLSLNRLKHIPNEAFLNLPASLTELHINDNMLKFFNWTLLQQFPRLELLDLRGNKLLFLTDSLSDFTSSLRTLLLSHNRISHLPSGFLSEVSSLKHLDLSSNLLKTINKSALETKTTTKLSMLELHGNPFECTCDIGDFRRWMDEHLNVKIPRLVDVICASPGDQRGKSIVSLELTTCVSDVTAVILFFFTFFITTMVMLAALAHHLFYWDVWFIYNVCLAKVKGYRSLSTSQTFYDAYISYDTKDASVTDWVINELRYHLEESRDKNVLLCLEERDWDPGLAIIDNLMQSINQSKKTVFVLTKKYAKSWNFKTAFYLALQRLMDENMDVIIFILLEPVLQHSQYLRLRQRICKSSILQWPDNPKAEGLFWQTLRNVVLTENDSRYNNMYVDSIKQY
# human TLR-7 = target: T2, human TLR-7 (Homo sapiens, UniProt Q9NYK1); experiment: TLR7/8-NF-κB Reporter Assay (HEK SEAP Reporter Assay), HEK-TLR-7 cells; format: cell-based; conditions: HEK cells stably transfected with human TLR-7 and NF-κB-responsive SEAP gene, 24 h
# T2 construct: host or cells: HEK cells stably transfected with human TLR-7 and an NF-κB-responsive SEAP reporter (HEK-TLR-7)
# T2 sequence (Q9NYK1 27-1049): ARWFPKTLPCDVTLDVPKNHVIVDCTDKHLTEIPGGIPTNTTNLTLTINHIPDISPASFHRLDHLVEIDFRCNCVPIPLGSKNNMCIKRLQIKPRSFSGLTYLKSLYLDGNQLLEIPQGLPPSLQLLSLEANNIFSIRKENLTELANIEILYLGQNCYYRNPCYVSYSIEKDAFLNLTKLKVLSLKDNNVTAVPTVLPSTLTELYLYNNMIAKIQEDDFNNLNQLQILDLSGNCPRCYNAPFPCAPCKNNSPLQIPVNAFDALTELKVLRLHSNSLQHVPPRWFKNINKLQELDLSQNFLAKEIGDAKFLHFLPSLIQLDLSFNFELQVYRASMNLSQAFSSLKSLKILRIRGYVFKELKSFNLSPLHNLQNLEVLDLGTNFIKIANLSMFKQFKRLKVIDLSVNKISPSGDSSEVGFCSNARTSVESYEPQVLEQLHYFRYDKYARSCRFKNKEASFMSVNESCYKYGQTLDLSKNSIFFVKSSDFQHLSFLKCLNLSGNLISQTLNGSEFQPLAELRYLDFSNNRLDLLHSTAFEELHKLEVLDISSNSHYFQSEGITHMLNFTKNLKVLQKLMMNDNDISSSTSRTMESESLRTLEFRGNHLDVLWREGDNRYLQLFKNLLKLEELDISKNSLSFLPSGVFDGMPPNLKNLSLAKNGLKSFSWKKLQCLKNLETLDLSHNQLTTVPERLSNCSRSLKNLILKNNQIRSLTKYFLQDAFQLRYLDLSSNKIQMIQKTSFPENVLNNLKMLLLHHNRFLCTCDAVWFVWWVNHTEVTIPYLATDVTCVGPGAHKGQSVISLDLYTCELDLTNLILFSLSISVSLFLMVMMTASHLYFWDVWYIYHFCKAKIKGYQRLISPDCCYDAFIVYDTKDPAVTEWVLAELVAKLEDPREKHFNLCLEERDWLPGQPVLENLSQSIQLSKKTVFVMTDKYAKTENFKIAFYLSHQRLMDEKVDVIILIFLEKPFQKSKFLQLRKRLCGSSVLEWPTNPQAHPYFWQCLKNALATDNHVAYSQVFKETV
Compound,EC50 (human TLR-8) [µM],EC50 (human TLR-7) [µM]
"4-amino-2-butyl-1-(2-hydroxypropyl)-7-benzenesulphonyl-1H-imidazo[4,5-c]quinoline [Compound 548]",0.29,1.53
CCCCc1nc2c(N)nc3cc(C(=O)OC)ccc3c2n1CCCNS(=O)(=O)c1ccccc1 [Compound 544],0.24,0.42
CCCCc1nc2c(N)nc3cc(C(=O)OC)ccc3c2n1Cc1ccc(C(=O)O)cc1 [Compound 556],–,189
CCCCc1nc2c(N)nc3cc(C(=O)OC)ccc3c2n1CCSC [Compound 563],–,2.9
CCCCc1nc2c(N)nc3cc(C(=O)OC)ccc3c2n1CCCSC [Compound 564],–,3.8
CCCCc1nc2c(N)nc3cc(C(=O)OC)ccc3c2n1CCSCC [Compound 565],–,6.7
CCCCc1nc2c(N)nc3cc(C(=O)OC)ccc3c2n1CC(=O)OC [Compound 566],–,3.3
CCCCc1nc2c(N)nc3cc(C(=O)OC)ccc3c2n1CCC(=O)OC [Compound 567],–,3.6
CCCCc1nc2c(N)nc3cc(C(=O)OC)ccc3c2n1CCCC(=O)OC [Compound 568],–,4.5
CCCCc1nc2c(N)nc3cc(C(=O)OC)ccc3c2n1CCCCC(=O)OC [Compound 569],–,1.74
CCCCc1nc2c(N)nc3cc(C(=O)OC)ccc3c2n1CCCCCC(=O)OC [Compound 570],–,2.9
CCCCc1nc2c(N)nc3cc(C(=O)OC)ccc3c2n1CCCN [Compound 572],66,–
CCCCc1nc2c(N)nc3cc(C(=O)OC)ccc3c2n1CCCCN [Compound 573],3.85,–
CCCCc1nc2c(N)nc3cc(C(=O)OC)ccc3c2n1CCCCCN [Compound 574],2.2,0.6
